Species: Rattus norvegicus
Assay: DrugMatrix - Regimen: Daily Repeat
Format: toxicity, organism-based, Sprague-Dawley
Design: regimen Daily Repeat, gender Male, age 6-8 weeks
Details: in vivo, po, route oral GAVAGE, vehicle 100 % WATER; for ABSOLUTE LYMPHOCYTE / ABSOLUTE MONOCYTE / ABSOLUTE SEGMENTED NEUTROPHIL / BASOPHIL / EOSINOPHIL / ERYTHROCYTE COUNT / HEMATOCRIT / LEUKOCYTE COUNT / LYMPHOCYTE / MEAN CORPUSCULAR HEMOGLOBIN / MEAN CORPUSCULAR HEMOGLOBIN CONCENTRATION / MEAN CORPUSCULAR VOLUME / MONOCYTE / NEUTROPHIL / NUCLEATED RED BLOOD CELLS / PLATELET COUNT / ABSOLUTE BASOPHIL / ABSOLUTE EOSINOPHIL: tissue Blood; for ALANINE AMINOTRANSFERASE / ALBUMIN / ALKALINE PHOSPHATASE / ASPARTATE AMINOTRANSFERASE / BLOOD UREA NITROGEN / CARBON DIOXIDE / CHLORIDE / CHOLESTEROL / CREATINE PHOSPHOKINASE / CREATININE / GLUCOSE / LACTATE DEHYDROGENASE / LIPASE / PHOSPHORUS / POTASSIUM / SODIUM / TOTAL BILIRUBIN / TOTAL PROTEIN / URIC ACID: tissue Plasma
[1] = 850 mg/kg, 72 h, dose level M1, time 3 day
[2] = 850 mg/kg, 120 h, dose level M1, time 5 day
[3] = 1500 mg/kg, 72 h, dose level High, time 3 day
[4] = 1500 mg/kg, 120 h, dose level High, time 5 day

Structure (SMILES): CCCC(CCC)C(=O)O [VALPROIC ACID]
- ABSOLUTE LYMPHOCYTE [1]: 8722.33 CELLS/uL
- ABSOLUTE MONOCYTE [1]: 267.67 CELLS/uL
- ABSOLUTE SEGMENTED NEUTROPHIL [1]: 836 CELLS/uL
- BASOPHIL [1]: 0%
- EOSINOPHIL [1]: 0.33%
- ERYTHROCYTE COUNT [1]: 5.4 x10E6/uL
- HEMATOCRIT [1]: 35.27%
- LEUKOCYTE COUNT [1]: 9.87 x10E3/uL
- LYMPHOCYTE [1]: 89%
- MEAN CORPUSCULAR HEMOGLOBIN [1]: 25.37 pg
- MEAN CORPUSCULAR HEMOGLOBIN CONCENTRATION [1]: 38.73 G/DL
- MEAN CORPUSCULAR VOLUME [1]: 65.5 fL
- MONOCYTE [1]: 2.67%
- NEUTROPHIL [1]: 8%
- NUCLEATED RED BLOOD CELLS [1]: 0 /100WBC
- PLATELET COUNT [1]: 1024 x10E3/uL
- ALANINE AMINOTRANSFERASE [1]: 50 u/L
- ALBUMIN [1]: 3.97 G/DL
- ALKALINE PHOSPHATASE [1]: 196.67 u/L
- ASPARTATE AMINOTRANSFERASE [1]: 87.67 u/L
- BLOOD UREA NITROGEN [1]: 13 mg/dL
- CARBON DIOXIDE [1]: 29 mmol/L
- CHLORIDE [1]: 99.33 MEQ/L
- CHOLESTEROL [1]: 57.67 mg/dL
- CREATINE PHOSPHOKINASE [1]: 134.67 u/L
- CREATININE [1]: 0.11 mg/dL
- GLUCOSE [1]: 145.67 mg/dL
- LACTATE DEHYDROGENASE [1]: 142.67 u/L
- LIPASE [1]: 9.33 u/L
- PHOSPHORUS [1]: 11.37 mg/dL
- POTASSIUM [1]: 6.32 MEQ/L
- SODIUM [1]: 143.5 MEQ/L
- TOTAL BILIRUBIN [1]: 0.23 mg/dL
- TOTAL PROTEIN [1]: 5.33 G/DL
- URIC ACID [1]: 1.57 mg/dL
- ABSOLUTE BASOPHIL [2]: 0 CELLS/uL
- ABSOLUTE EOSINOPHIL [2]: 50 CELLS/uL
- ABSOLUTE LYMPHOCYTE [2]: 6795.67 CELLS/uL
- ABSOLUTE MONOCYTE [2]: 121.33 CELLS/uL
- ABSOLUTE SEGMENTED NEUTROPHIL [2]: 433 CELLS/uL
- BASOPHIL [2]: 0%
- EOSINOPHIL [2]: 0.67%
- ERYTHROCYTE COUNT [2]: 5.21 x10E6/uL
- HEMATOCRIT [2]: 33.77%
- LEUKOCYTE COUNT [2]: 7.4 x10E3/uL
- LYMPHOCYTE [2]: 92%
- MEAN CORPUSCULAR HEMOGLOBIN [2]: 24.63 pg
- MEAN CORPUSCULAR HEMOGLOBIN CONCENTRATION [2]: 38 G/DL
- MEAN CORPUSCULAR VOLUME [2]: 64.83 fL
- MONOCYTE [2]: 1.67%
- NEUTROPHIL [2]: 5.67%
- NUCLEATED RED BLOOD CELLS [2]: 0 /100WBC
- PLATELET COUNT [2]: 851.33 x10E3/uL
- ALANINE AMINOTRANSFERASE [2]: 58.33 u/L
- ALBUMIN [2]: 3.83 G/DL
- ALKALINE PHOSPHATASE [2]: 272 u/L
- ASPARTATE AMINOTRANSFERASE [2]: 99 u/L
- BLOOD UREA NITROGEN [2]: 12.67 mg/dL
- CARBON DIOXIDE [2]: 31.67 mmol/L
- CHLORIDE [2]: 100 MEQ/L
- CHOLESTEROL [2]: 60 mg/dL
- CREATINE PHOSPHOKINASE [2]: 402 u/L
- CREATININE [2]: 0.28 mg/dL
- GLUCOSE [2]: 139.67 mg/dL
- LACTATE DEHYDROGENASE [2]: 186.33 u/L
- LIPASE [2]: 11 u/L
- PHOSPHORUS [2]: 11.17 mg/dL
- POTASSIUM [2]: 6.05 MEQ/L
- SODIUM [2]: 143.73 MEQ/L
- TOTAL BILIRUBIN [2]: 0.2 mg/dL
- TOTAL PROTEIN [2]: 5.83 G/DL
- URIC ACID [2]: 0.5 mg/dL
- ABSOLUTE BASOPHIL [3]: 0 CELLS/uL
- ABSOLUTE EOSINOPHIL [3]: 0 CELLS/uL
- ABSOLUTE LYMPHOCYTE [3]: 4940.67 CELLS/uL
- ABSOLUTE MONOCYTE [3]: 35.67 CELLS/uL
- ABSOLUTE SEGMENTED NEUTROPHIL [3]: 257 CELLS/uL
- BASOPHIL [3]: 0%
- EOSINOPHIL [3]: 0%
- ERYTHROCYTE COUNT [3]: 5.94 x10E6/uL
- HEMATOCRIT [3]: 37.3%
- LEUKOCYTE COUNT [3]: 5.23 x10E3/uL
- LYMPHOCYTE [3]: 94.33%
- MEAN CORPUSCULAR HEMOGLOBIN [3]: 23.37 pg
- MEAN CORPUSCULAR HEMOGLOBIN CONCENTRATION [3]: 37.17 G/DL
- MEAN CORPUSCULAR VOLUME [3]: 62.83 fL
- MONOCYTE [3]: 0.67%
- NEUTROPHIL [3]: 5%
- NUCLEATED RED BLOOD CELLS [3]: 0 /100WBC
- PLATELET COUNT [3]: 901.67 x10E3/uL
- ALANINE AMINOTRANSFERASE [3]: 32.33 u/L
- ALBUMIN [3]: 4.5 G/DL
- ALKALINE PHOSPHATASE [3]: 225.67 u/L
- ASPARTATE AMINOTRANSFERASE [3]: 77.67 u/L
- BLOOD UREA NITROGEN [3]: 10.67 mg/dL
- CARBON DIOXIDE [3]: 26 mmol/L
- CHLORIDE [3]: 104 MEQ/L
- CHOLESTEROL [3]: 42.67 mg/dL
- CREATINE PHOSPHOKINASE [3]: 120 u/L
- CREATININE [3]: 0.22 mg/dL
- GLUCOSE [3]: 138 mg/dL
- LACTATE DEHYDROGENASE [3]: 112 u/L
- LIPASE [3]: 7.67 u/L
- PHOSPHORUS [3]: 14.3 mg/dL
- POTASSIUM [3]: 6.21 MEQ/L
- SODIUM [3]: 146.87 MEQ/L
- TOTAL BILIRUBIN [3]: 0.1 mg/dL
- TOTAL PROTEIN [3]: 5.87 G/DL
- URIC ACID [3]: 1.7 mg/dL
- ABSOLUTE BASOPHIL [4]: 0 CELLS/uL
- ABSOLUTE EOSINOPHIL [4]: 7.25 CELLS/uL
- ABSOLUTE LYMPHOCYTE [4]: 3923.75 CELLS/uL
- ABSOLUTE MONOCYTE [4]: 124 CELLS/uL
- ABSOLUTE SEGMENTED NEUTROPHIL [4]: 320 CELLS/uL
- BASOPHIL [4]: 0%
- EOSINOPHIL [4]: 0.25%
- ERYTHROCYTE COUNT [4]: 6.03 x10E6/uL
- HEMATOCRIT [4]: 36.38%
- LEUKOCYTE COUNT [4]: 4.38 x10E3/uL
- LYMPHOCYTE [4]: 91%
- MEAN CORPUSCULAR HEMOGLOBIN [4]: 22.62 pg
- MEAN CORPUSCULAR HEMOGLOBIN CONCENTRATION [4]: 37.5 G/DL
- MEAN CORPUSCULAR VOLUME [4]: 60.35 fL
- MONOCYTE [4]: 2.25%
- NEUTROPHIL [4]: 6.5%
- NUCLEATED RED BLOOD CELLS [4]: 0 /100WBC
- PLATELET COUNT [4]: 549.5 x10E3/uL
- ALANINE AMINOTRANSFERASE [4]: 52.5 u/L
- ALBUMIN [4]: 4.57 G/DL
- ALKALINE PHOSPHATASE [4]: 204.25 u/L
- ASPARTATE AMINOTRANSFERASE [4]: 132 u/L
- BLOOD UREA NITROGEN [4]: 15.75 mg/dL
- CARBON DIOXIDE [4]: 28 mmol/L
- CHLORIDE [4]: 105.75 MEQ/L
- CHOLESTEROL [4]: 53.5 mg/dL
- CREATINE PHOSPHOKINASE [4]: 1153.75 u/L
- CREATININE [4]: 0.25 mg/dL
- GLUCOSE [4]: 150.25 mg/dL
- LACTATE DEHYDROGENASE [4]: 237.5 u/L
- LIPASE [4]: 8.25 u/L
- PHOSPHORUS [4]: 13.5 mg/dL
- POTASSIUM [4]: 6.62 MEQ/L
- SODIUM [4]: 146.95 MEQ/L
- TOTAL BILIRUBIN [4]: 0.15 mg/dL
- TOTAL PROTEIN [4]: 5.9 G/DL
- URIC ACID [4]: 1.88 mg/dL
